Experiments:
[1] = Rat microsomal stability (RLM); format: in vitro ADME; conditions: Table 10
[2] = system: THP-1 cells; experiment: Inhibitory activity against THP-1 cells; format: cell-based; conditions: THP-1 cells (FLT3 wild type AML); data not shown
[3] = system: MLL-AF9/FLT3-ITD cells; format: cell-based; conditions: Homo sapiens, MLL-AF9, Table 10
[4] = system: MLL-AF9 NRas cells; experiment: NRAS IC50 (MLL-AF9 NRas cells); format: cell-based; conditions: Table 10
[5] = system: FLT3 phosphorylation; experiment: Immunoblot of phosphorylated FLT3 in MV4;11 cells; format: cell-based, human; conditions: 50 nM, 24 hours
[6] = system: IRAK4 phosphorylation; experiment: Immunoblot of P-IRAK4 in FLT3-ITD AML cells; format: cell-based, human; conditions: 50 nM
[7] = biological target: IRAK1 (Homo sapiens (Human), UniProt P51617); experiment: HotSpot kinase IC50 assay; format: biochemical; conditions: 10 μM ATP
[8] = biological target: IRAK4 (Homo sapiens (Human), UniProt Q9NWZ3); experiment: HotSpot kinase IC50 assay; format: biochemical; conditions: 10 μM ATP

Compound	Stability [1]	IC50 [3]	IC50 [4]	further results
Clc1ccc2ncc(-c3cccc(NC4CCNCC4)n3)n2c1 [Compound I-2, 6-(6-chloroimidazo[1,2-a]pyridin-3-yl)-N-(piperidin-4-yl)pyridin-2-amine]	>30.0 min	–	–	concentration without any inhibitory activity [2]: > 10 µM
c1cc(NC2CNC2)nc(-c2cnc3ccccn23)c1 [Compound I-12, N-(azetidin-3-yl)-6-(imidazo[1,2-a]pyridin-3-yl)pyridin-2-amine]	>30.0 min	–	–	–
Clc1ccc2ncc(-c3cccc(NC4CNC4)n3)n2c1 [Compound I-15, N-(azetidin-3-yl)-6-(6-chloroimidazo[1,2-a]pyridin-3-yl)pyridin-2-amine]	–	1180 nM	16600 nM	–
Clc1ccc2ncc(-c3cccc(NC4CCNC4)n3)n2c1 (centres unmarked) [Compound I-16, 6-(6-chloroimidazo[1,2-a]pyridin-3-yl)-N-(pyrrolidin-3-yl)pyridin-2-amine]	–	–	1760 nM	–
Clc1ccc2ncc(-c3cccc(NC4CCCNC4)n3)n2c1 (centres unmarked) [Compound I-17, 6-(6-chloroimidazo[1,2-a]pyridin-3-yl)-N-(piperidin-3-yl)pyridin-2-amine]	>30.0 min	–	–	–
COc1cc2ncc(-c3cccc(NC4CCNC4)n3)n2cc1-c1cn[nH]c1 (centres unmarked) [Compound I-20, 6-(7-methoxy-6-(1H-pyrazol-4-yl)imidazo[1,2-a]pyridin-3-yl)-N-(pyrrolidin-3-yl)pyridin-2-amine]	–	40 nM	33200 nM	FLT3 phosphorylation [5]: inhibited FLT3 phosphorylation comparably to AC220; compensatory phosphorylation of IRAK4 [6]: did not result in compensatory phosphorylation of IRAK4
COc1cc2ncc(-c3cccc(NC4CCNC4)n3)n2cc1Cl (centres unmarked) [Compound I-21, 6-(6-chloro-7-methoxyimidazo[1,2-a]pyridin-3-yl)-N-(pyrrolidin-3-yl)pyridin-2-amine]	27 min	–	–	–
COc1cc2ncc(-c3cccc(NC4CCNC4)n3)n2cc1-c1ccncc1 (centres unmarked) [Compound I-23, 6-(7-methoxy-6-(pyridin-4-yl)imidazo[1,2-a]pyridin-3-yl)-N-(pyrrolidin-3-yl)pyridin-2-amine]	>30.0 min	–	1830 nM	–
COc1cc2ncc(-c3cccc(NC4CCNC4)n3)n2cc1-c1c(C)n[nH]c1C (centres unmarked) [Compound I-25, 6-(6-(3,5-dimethyl-1H-pyrazol-4-yl)-7-methoxyimidazo[1,2-a]pyridin-3-yl)-N-(pyrrolidin-3-yl)pyridin-2-amine]	>30.0 min	–	15700 nM	–
COc1cc2ncc(-c3cccc(NC4CCNC4)n3)n2cc1-c1cnn(CCN2CCOCC2)c1 (centres unmarked) [Compound I-26]	>30.0 min	20 nM	15700 nM	–
COc1cc2ncc(-c3cccc(NC4CCNC4)n3)n2cc1-c1cc[nH]c1 (centres unmarked) [Compound I-27, 6-(7-methoxy-6-(1H-pyrrol-3-yl)imidazo[1,2-a]pyridin-3-yl)-N-(pyrrolidin-3-yl)pyridin-2-amine]	>30.0 min	–	4430 nM	–
COc1cc2ncc(-c3cccc(NC4CCNC4)n3)n2cc1-c1c(C)noc1C (centres unmarked) [Compound I-28, 6-(6-(3,5-dimethylisoxazol-4-yl)-7-methoxyimidazo[1,2-a]pyridin-3-yl)-N-(pyrrolidin-3-yl)pyridin-2-amine]	–	–	14800 nM	–
COc1cc2ncc(-c3cccc(NC4CCCNC4)n3)n2cc1-c1cn[nH]c1 (centres unmarked) [Compound I-29, 6-(7-methoxy-6-(1H-pyrazol-4-yl)imidazo[1,2-a]pyridin-3-yl)-N-(piperidin-3-yl)pyridin-2-amine]	9.8 min	–	9350 nM	–
COc1cc2ncc(-c3cccc(N(C)C4CCNC4)n3)n2cc1-c1cn[nH]c1 (centres unmarked) [Compound I-31, 6-(7-methoxy-6-(1H-pyrazol-4-yl)imidazo[1,2-a]pyridin-3-yl)-N-methyl-N-(pyrrolidin-3-yl)pyridin-2-amine]	–	–	16600 nM	–
COc1cc2ncc(-c3cccc(OC4CCNC4)n3)n2cc1-c1cn[nH]c1 (centres unmarked) [Compound I-32, 7-methoxy-6-(1H-pyrazol-4-yl)-3-(6-(pyrrolidin-3-yloxy)pyridin-2-yl)imidazo[1,2-a]pyri-dine]	7.7 min	–	3720 nM	–
COc1cc2ncc(-c3nc(NC4CCNC4)c(F)cc3F)n2cc1-c1cn[nH]c1 (centres unmarked) [Compound I-33, 3,5-difluoro-6-(7-methoxy-6-(1H-pyrazol-4-yl)imidazo[1,2-a]pyridin-3-yl)-N-(pyrrolidin-3-yl)pyridin-2-amine]	9.3 min	–	29800 nM	–
COc1cc2ncc(-c3cccc(NC4CCNC4)n3)n2cc1OC (centres unmarked) [Compound I-36]	>30.0 min	17 nM	4430 nM	–
COc1cc(-c2cn[nH]c2)cn2c(-c3cccc(NC4CCNC4)n3)cnc12 (centres unmarked) [Compound I-37]	2.3 min	2220 nM	16600 nM	–
COc1cc2ncc(-c3cccc(NC4CCNC4)n3)n2cc1-c1nnn[nH]1 (centres unmarked) [Compound I-38]	>30.0 min	6260 nM	2 nM	–
COc1cc2ncc(-c3cccc(NC4CCNC4)n3)n2cc1C#N (centres unmarked) [Compound I-39]	8.8 min	33 nM	5580 nM	–
Clc1cn2c(-c3cccc(NC4CCNC4)n3)cnc2cc1OCCN1CCOCC1 (centres unmarked) [Compound I-40]	>30.0 min	8 nM	626 nM	–
c1cc(NC2CCNC2)nc(-c2cnc3cc(OCCN4CCOCC4)c(-c4cn[nH]c4)cn23)c1 (centres unmarked) [Compound I-41, 6-(7-(2-morpholinoethoxy)-6-(1H-pyrazol-4-yl)imidazo[1,2-a]pyridin-3-yl)-N-(pyrrolidin-3-yl)pyridin-2-amine]	>30.0 min	–	17600 nM	–

Compound	Stability [1]	IC50 [3]	IC50 [4]	further results
COc1cc(Cl)cn2c(-c3cccc(NC4CNC4)n3)cnc12 [Compound I-42, N-(azetidin-3-yl)-6-(6-chloro-8-methoxyimidazo[1,2-a]pyridin-3-yl)pyridin-2-amine]	–	–	20900 nM	–
c1cc(N[C@@H]2CCNC2)nc(-c2cnc3ccc(-c4cn[nH]c4)cn23)c1 [Compound I-43]	–	76 nM	–	–
c1cc(N[C@H]2CCNC2)nc(-c2cnc3ccc(-c4cn[nH]c4)cn23)c1 [Compound I-44]	–	17 nM	–	–
c1cc(NC2CNC2)nc(-c2cnc3ccc(-c4cn[nH]c4)cn23)c1 [Compound I-45]	–	460 nM	4290 nM	–
Cn1cc(-c2ccc3ncc(-c4cccc(NC5CNC5)n4)n3c2)cn1 [Compound I-46]	>30.0 min	213 nM	16600 nM	–
Fc1cc(F)c(-c2cnc3ccc(Cl)cn23)nc1NC1CNC1 [Compound I-47]	>30.0 min	–	1880 nM	–
Cc1ccc(-c2cnc3ccc(Cl)cn23)nc1NC1CNC1 [Compound I-48]	–	2790 nM	–	–
Cc1ccc(NC2CNC2)nc1-c1cnc2ccc(Cl)cn12 [Compound I-49]	–	892 nM	–	–
COc1ccn2c(-c3cccc(NC4CNC4)n3)cnc2c1 [Compound I-50, N-(azetidin-3-yl)-6-(7-methoxyimidazo[1,2-a]pyridin-3-yl)pyridin-2-amine]	>30.0 min	–	–	–
CN(c1cccc(-c2cnc3ccc(Cl)cn23)n1)C1CCNCC1 [Compound I-51]	–	28 nM	–	–
Brc1ccc2ncc(-c3cccc(NC4CNC4)n3)n2c1 [Compound I-52]	–	85 nM	–	–
Clc1ccc2ncc(-c3cc(Br)cc(NC4CNC4)n3)n2c1 [Compound I-53]	>30.0 min	4960 nM	–	–
c1cc(NC2CCNC2)nc(-c2cnc3ccc(-c4cn[nH]c4)cn23)c1 (centres unmarked) [Compound I-54, 6-(6-(1H-pyrazol-4-yl)imidazo[1,2-a]pyridin-3-yl)-N-(pyrrolidin-3-yl)pyridin-2-amine]	–	107 nM	–	–
CC(=O)N1CC(Nc2cccc(-c3cnc4ccc(Cl)cn34)n2)C1 [Compound I-57]	>30.0 min	399 nM	–	–
O=C(c1ccccc1)N1CC(Nc2cccc(-c3cnc4ccc(Cl)cn34)n2)C1 [Compound I-58]	8.0 min	709 nM	–	–
N#CCC(=O)N1CC(Nc2cccc(-c3cnc4ccc(Cl)cn34)n2)C1 [Compound I-59]	>30.0 min	205 nM	–	–
Cc1ccn2c(-c3cccc(NC4CNC4)n3)cnc2c1 [Compound I-61, N-(azetidin-3-yl)-6-(7-methylimidazo[1,2-a]pyridin-3-yl)pyridin-2-amine]	>30.0 min	–	–	–
Clc1cc2ncc(-c3cccc(NC4CNC4)n3)n2cc1Cl [Compound I-62]	>30.0 min	154 nM	–	–
CCN1CCN(c2ccc3ncc(-c4cccc(NC5CNC5)n4)n3c2)CC1 [Compound I-64]	–	2000 nM	–	–
COc1cc(NC2CNC2)nc(-c2cnc3ccc(Cl)cn23)c1 [Compound I-67, N-(azetidin-3-yl)-6-(6-chloroimidazo[1,2-a]pyridin-3-yl)-4-methoxypyridin-2-amine]	>30.0 min	–	–	–
CC(C)(C)c1cc(NC(=O)Nc2ccc(-c3cn4c(n3)sc3cc(OCCN5CCOCC5)ccc34)cc2)no1 [quizartinib]	–	–	–	IC50 [7]: inactive; IC50 [8]: inactive
